In ChEMBL document CHEMBL6092168, “Identification of novel indolinone derivatives as CTSC inhibitors to treat inflammatory bowel disease by modulating inflammatory factors” (Eur J Med Chem, 2024) one finds IC50 and Activity data, which are given here for 31 compounds.

In one assay the target is Dipeptidyl peptidase 1 (Homo sapiens, UniProt P53634). The experiment in a line: Inhibition of human recombinant Cathepsin C using Gly-Phe-AFC as substrate preincubated for 3 hrs followed by substrate addition and measured after 1 hr by fluorescence based multifunctional microplate reader analysis.
Assay [1] concerns RAW264.7. In words: Anti-inflammatory activity in mouse RAW264.7 cells assessed as inhibition of LPS-induced NO production preincubated for 1 hr followed by LPS addition and measured after 24 hrs by Griess reagent based assay. The class given is functional, cell-based.
The subject of assay [2] is RAW264.7. In words: Anti-inflammatory activity in mouse RAW264.7 cells assessed as inhibition of LPS-induced IL-1beta production at 5 uM preincubated for 1 hr followed by LPS addition and measured after 24 hrs by ELISA relative to control. Further details: scale not given: the % may be the effect or the level left. The class given is functional. In general terms: An ELISA detects its analyte on a solid surface through an enzyme-linked reagent.

Assay [3] has as its system RAW264.7. In words: Anti-inflammatory activity in mouse RAW264.7 cells assessed as inhibition of LPS-induced TNF-alpha production at 5 uM preincubated for 1 hr followed by LPS addition and measured after 24 hrs by ELISA relative to control. Further details: scale not given: the % may be the effect or the level left. The class given is functional.

Activity calls are given as the source filed them. The rule behind the calls is not given here.

As usually defined, the IC50 is the concentration needed to halve the response being measured.

Chain of Dipeptidyl peptidase 1 (P53634 25-134 limits assumed): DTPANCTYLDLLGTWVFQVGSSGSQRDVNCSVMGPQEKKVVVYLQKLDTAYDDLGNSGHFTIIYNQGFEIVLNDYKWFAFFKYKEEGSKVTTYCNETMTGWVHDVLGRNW
Chain of Dipeptidyl peptidase 1 (P53634 231-394 limits assumed): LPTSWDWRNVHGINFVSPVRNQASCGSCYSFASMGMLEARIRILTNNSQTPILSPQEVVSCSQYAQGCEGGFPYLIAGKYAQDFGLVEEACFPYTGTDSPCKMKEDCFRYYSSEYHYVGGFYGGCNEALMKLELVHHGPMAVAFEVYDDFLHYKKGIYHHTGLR
Chain of Dipeptidyl peptidase 1 (P53634 395-463 limits assumed): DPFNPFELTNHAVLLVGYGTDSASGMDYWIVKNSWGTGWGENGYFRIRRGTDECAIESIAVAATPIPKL

In the case of `O=C1Nc2c(cccc2-c2ccc3[nH]ncc3c2)/C1=C/c1ccnc2ccccc12`, the IC50 was determined as 190 nM at Dipeptidyl peptidase 1 and 9800 nM in the assay on RAW264.7 [1]. Besides, the Activity was 62% with RAW264.7 [2] (time 25 hrs) and 41.3% with RAW264.7 [3] (time 25 hrs).

In the case of `COc1ccc(-c2cccc3c2NC(=O)/C3=C\c2ccnc3ccccc23)cc1`, the IC50 at Dipeptidyl peptidase 1 is above 1000 nM; in the assay with RAW264.7 [1], above 50000 nM. Moreover, the result in the assay on RAW264.7 [2] (time 25.0 hrs) and with RAW264.7 [3] (time 25.0 hrs) was inactive.

Regarding `O=C(Nc1cccc(O)c1)c1cccc(-c2ccc(CN3CCOCC3)cc2)c1`, the IC50 was 265 nM on Dipeptidyl peptidase 1 and 9700 nM with RAW264.7 [1]. Besides, the Activity in the assay on RAW264.7 [2] (time 25 hrs) was determined as 55.7%; in the assay with RAW264.7 [3] (time 25 hrs) it was 62.2%.

Consider `O=C(Nc1ccc2ccccc2c1)c1cccc(-c2ccc(CN3CCOCC3)cc2)n1`, for which the IC50 at Dipeptidyl peptidase 1 is 302 nM; in the assay on RAW264.7 [1] it was 2900 nM. Besides, the Activity with RAW264.7 [2] (time 25 hrs) amounted to 69.3%; in the assay on RAW264.7 [3] (time 25 hrs), 57.4%.

As for `NC(=O)c1ccc(NC(=O)c2cccc(-c3ccc(CN4CCOCC4)cc3)c2)cc1`, the IC50 is above 1000 nM at Dipeptidyl peptidase 1 and above 50000 nM in the assay on RAW264.7 [1]. Besides, the result with RAW264.7 [2] (time 25.0 hrs) and in the assay with RAW264.7 [3] (time 25.0 hrs) was inactive.

Take `O=C(Nc1cncc2ccccc12)c1cccc(-c2ccc(CN3CCOCC3)cc2)n1`: the IC50 on Dipeptidyl peptidase 1 was 251 nM; with RAW264.7 [1] it was above 50000 nM. In addition, the result with RAW264.7 [2] (time 25.0 hrs) and in the assay on RAW264.7 [3] (time 25.0 hrs) was inactive.

As to `Nc1ccccc1NC(=O)c1cccc(-c2ccc(CN3CCOCC3)cc2)c1`, the IC50 on Dipeptidyl peptidase 1 was above 1000 nM; with RAW264.7 [1], above 50000 nM. Moreover, the outcome in the assay on RAW264.7 [2] (time 25.0 hrs) and in the assay on RAW264.7 [3] (time 25.0 hrs) was inactive.

For the compound `O=C(Nc1ccc(C(F)(F)F)cc1)c1cccc(-c2ccc(CN3CCOCC3)cc2)c1`, the IC50 was above 1000 nM at Dipeptidyl peptidase 1 and above 50000 nM with RAW264.7 [1]. For the same compound, the result with RAW264.7 [2] (time 25.0 hrs) and with RAW264.7 [3] (time 25.0 hrs) was inactive.

In the case of `O=C(Nc1ccnc2ccccc12)c1cccc(-c2ccc(CN3CCOCC3)cc2)n1`, the IC50 on Dipeptidyl peptidase 1 is 273 nM; in the assay on RAW264.7 [1], 2900 nM. Further, the Activity in the assay with RAW264.7 [2] (time 25 hrs) was 70.2%; with RAW264.7 [3] (time 25 hrs), 62.2%.

With `CN1CCN(Cc2ccc(-c3cccc4c3NC(=O)/C4=C\c3ccnc4ccccc34)cc2)CC1`, the values for the IC50 at Dipeptidyl peptidase 1 and with RAW264.7 [1] were 161 nM and 3200 nM, respectively. Moreover, the results for the Activity in the assay with RAW264.7 [2] (time 25 hrs) and with RAW264.7 [3] (time 25 hrs) were 80.4% and 70.4%, respectively.

For the compound `CC(C)c1ccc(-c2cccc3c2NC(=O)/C3=C\c2ccnc3ccccc23)cc1`, the IC50 at Dipeptidyl peptidase 1 is above 1000 nM; with RAW264.7 [1] it was above 50000 nM. The result with RAW264.7 [2] (time 25.0 hrs) and with RAW264.7 [3] (time 25.0 hrs) was inactive.

`CC(=O)Nc1cccc(NC(=O)c2cccc(-c3ccc(CN4CCOCC4)cc3)c2)c1`: the IC50 was above 1000 nM at Dipeptidyl peptidase 1 and above 50000 nM in the assay on RAW264.7 [1]. The outcome in the assay on RAW264.7 [2] (time 25.0 hrs) and in the assay on RAW264.7 [3] (time 25.0 hrs) was inactive.

In the case of `CC(C)c1cccc(NC(=O)c2cccc(-c3ccc(CN4CCOCC4)cc3)c2)c1`, the IC50 at Dipeptidyl peptidase 1 was above 1000 nM; with RAW264.7 [1], above 50000 nM. The result in the assay with RAW264.7 [2] (time 25.0 hrs) and in the assay on RAW264.7 [3] (time 25.0 hrs) was inactive.

With `O=C(Nc1cncc2ccccc12)c1cccc(-c2ccc(CN3CCOCC3)cc2)c1`, the values for the IC50 on Dipeptidyl peptidase 1 and in the assay on RAW264.7 [1] were 250 nM and 9700 nM, respectively. The Activity in the assay with RAW264.7 [2] (time 25 hrs) came out at 65.6%; in the assay on RAW264.7 [3] (time 25 hrs), 62.5%.

As for `Nc1c(C(=O)Nc2ccnc3ccccc23)cccc1-c1ccc(CN2CCOCC2)cc1`, the values for the IC50 on Dipeptidyl peptidase 1 and with RAW264.7 [1] were 145 nM and 6400 nM, respectively. For the same compound, the Activity was 80.9% with RAW264.7 [2] (time 25 hrs) and 75.2% in the assay with RAW264.7 [3] (time 25 hrs).

In the case of `O=C(Nc1ccnc2ccccc12)c1cccc(-c2ccc(CN3CCOCC3)cc2)c1`, the IC50 came to 240 nM at Dipeptidyl peptidase 1 and 9400 nM in the assay with RAW264.7 [1]. Moreover, the Activity in the assay on RAW264.7 [2] (time 25 hrs) was 75.7%; in the assay on RAW264.7 [3] (time 25 hrs) it was 70.6%.

In the case of `Nc1cccc(NC(=O)c2cccc(-c3ccc(CN4CCOCC4)cc3)c2)c1`, the IC50 was above 1000 nM at Dipeptidyl peptidase 1 and above 50000 nM in the assay with RAW264.7 [1]. Further, the result in the assay on RAW264.7 [2] (time 25.0 hrs) and with RAW264.7 [3] (time 25.0 hrs) was inactive.

For `O=C1Nc2c(cccc2-c2ccc(CN3CCOCC3)cc2)/C1=C/c1ccnc2ccccc12`, the IC50 came out at 106 nM at Dipeptidyl peptidase 1 and 4400 nM in the assay on RAW264.7 [1]. For the same compound, the Activity in the assay on RAW264.7 [2] (time 25 hrs) is listed as 88.3%; with RAW264.7 [3] (time 25 hrs), 72.2%.

As for `O=C(Nc1ccc(F)cc1)c1cccc(-c2ccc(CN3CCOCC3)cc2)c1`, the IC50 is above 1000 nM on Dipeptidyl peptidase 1 and above 50000 nM in the assay with RAW264.7 [1]. In addition, the outcome in the assay with RAW264.7 [2] (time 25.0 hrs) and in the assay on RAW264.7 [3] (time 25.0 hrs) was inactive.

As to `CC(=O)c1ccc(NC(=O)c2cccc(-c3ccc(CN4CCOCC4)cc3)c2)cc1`, the results for the IC50 on Dipeptidyl peptidase 1 and with RAW264.7 [1] were above 1000 nM and above 50000 nM, respectively. For the same compound, the outcome with RAW264.7 [2] (time 25.0 hrs) and in the assay with RAW264.7 [3] (time 25.0 hrs) was inactive.

As for `Cc1cccc(NC(=O)c2cccc(-c3ccc(CN4CCOCC4)cc3)c2)c1`, the IC50 on Dipeptidyl peptidase 1 was above 1000 nM; in the assay on RAW264.7 [1] it was above 50000 nM. For the same compound, the result in the assay with RAW264.7 [2] (time 25.0 hrs) and in the assay with RAW264.7 [3] (time 25.0 hrs) was inactive.

Turning to `NC(=O)c1cccc(NC(=O)c2cccc(-c3ccc(CN4CCOCC4)cc3)c2)c1`, the values for the IC50 on Dipeptidyl peptidase 1 and in the assay with RAW264.7 [1] were 360 nM and 16100 nM, respectively. The Activity in the assay with RAW264.7 [2] (time 25 hrs) was 35.6%; with RAW264.7 [3] (time 25 hrs) it was 41.9%.

Consider `CC(=O)c1cccc(NC(=O)c2cccc(-c3ccc(CN4CCOCC4)cc3)c2)c1`, for which the figures for the IC50 on Dipeptidyl peptidase 1 and in the assay on RAW264.7 [1] were 292 nM and 20200 nM, respectively. Also, the Activity with RAW264.7 [2] (time 25 hrs) stood at 47.4%; with RAW264.7 [3] (time 25 hrs), 50.3%.

Consider `COc1cccc(NC(=O)c2cccc(-c3ccc(CN4CCOCC4)cc3)c2)c1`, for which the IC50 is 486 nM at Dipeptidyl peptidase 1 and above 50000 nM in the assay with RAW264.7 [1]. For the same compound, the Activity with RAW264.7 [2] (time 25 hrs) worked out at 25.5%; with RAW264.7 [3] (time 25 hrs), 20.4%.

For the compound `CN(C)Cc1ccc(-c2cccc3c2NC(=O)/C3=C\c2ccnc3ccccc23)cc1`, the IC50 on Dipeptidyl peptidase 1 was determined as 660 nM; in the assay on RAW264.7 [1] it was 14500 nM. The result with RAW264.7 [2] (time 25.0 hrs) and in the assay on RAW264.7 [3] (time 25.0 hrs) was inactive.

Regarding `Nc1ccc(-c2cccc3c2NC(=O)/C3=C\c2ccnc3ccccc23)cc1`, the IC50 on Dipeptidyl peptidase 1 came out at 493 nM; in the assay on RAW264.7 [1] it was 8100 nM. Further, the result in the assay on RAW264.7 [2] (time 25.0 hrs) and with RAW264.7 [3] (time 25.0 hrs) was inactive.

In the case of `CN(C)c1ccc(-c2cccc3c2NC(=O)/C3=C\c2ccnc3ccccc23)cc1`, the IC50 is above 1000 nM at Dipeptidyl peptidase 1 and 15100 nM in the assay with RAW264.7 [1]. Moreover, the result in the assay with RAW264.7 [2] (time 25.0 hrs) and in the assay with RAW264.7 [3] (time 25.0 hrs) was inactive.

With `CCc1ccc(NC(=O)c2cccc(-c3ccc(CN4CCOCC4)cc3)c2)cc1`, the IC50 on Dipeptidyl peptidase 1 was above 1000 nM; with RAW264.7 [1] it was above 50000 nM. The result in the assay with RAW264.7 [2] (time 25.0 hrs) and in the assay on RAW264.7 [3] (time 25.0 hrs) was inactive.

Take `O=C1Nc2c(cccc2-c2ccc(C(=O)NC3CCOCC3)cc2)/C1=C/c1ccnc2ccccc12`: the IC50 in the assay with RAW264.7 [1] amounted to 6800 nM. For the same compound, the results for the Activity in the assay on RAW264.7 [2] (time 25 hrs) and in the assay with RAW264.7 [3] (time 25 hrs) were 88.1% and 71.9%, respectively.

Take `O=C1Nc2c(cccc2-c2ccc3cc[nH]c3c2)/C1=C/c1ccnc2ccccc12`: the IC50 with RAW264.7 [1] turned out to be 9800 nM. Further, the Activity in the assay with RAW264.7 [2] (time 25 hrs) was 60.2%; with RAW264.7 [3] (time 25 hrs) it was 39.4%.

As for `NCc1ccc(-c2cccc3c2NC(=O)/C3=C\c2ccnc3ccccc23)cc1`, the IC50 in the assay with RAW264.7 [1] amounted to 14500 nM. Further, the result with RAW264.7 [2] (time 25.0 hrs) and in the assay on RAW264.7 [3] (time 25.0 hrs) was inactive.
